Values of other authors in patent US11141456B2, “Therapeutic compositions including frataxin, lactoferrin, and mitochondrial energy generating enzymes, and uses thereof” (Stealth BioTherapeutics Corp, priority 2014, dated 2021).

System: several mammalian cell types
Conditions: energy-independent manner; cited from earlier work

## 2′,6′-Dmt-D-Arg-Phe-Lys-NH2
  penetration of the plasma membrane: readily penetrates the plasma membrane
